Assay results from article PMC7462607 (eLife, 2020).
“And” between values parts separate entries of the source, which are not always exact repeats. Identical values can stand only once. Like-named read-outs stand apart in the source and are kept apart here.

Key:
DDB1ΔBPB = molecular target: T1, DDB1ΔBPB (Homo sapiens, UniProt Q16531, DEL400-704); assay: Differential Scanning Fluorimetry (DSF), DDB1ΔBPB; format: binding; details: 50 µM HQ461
T1 construct: Strep-tag (N); 8xHis (N); made in house; host or cells: Sf9
Experimental: (§1) CDK12KD/CCNKΔC (WT or G731E/R) and DDB1ΔBPB were diluted to 5 μM with DSF assay buffer (50 mM HEPES pH 7.5, 300 mM NaCl, 0.5 mM TCEP). 50 µM HQ461 or 10 µM HBx was added to diluted proteins (final DMSO concentration 0.25%). Twenty µL of protein-compound mix was aliquoted per qPCR tube (Labtidebiotech, Shanghai, China, P01-0803E) followed by the addition of 5 µL of 1:400 diluted SYPRO Orange (Sigma-Aldrich, MO, USA, S5692). After incubation on ice for 20 min, fluorescence measurements were performed using a Bio-Rad CFX96 Realtime PCR instrument. During the DSF experiment, the temperature was increased from 10°C to 95°C at an increment of 0.5 °C with equilibration time of 10 s at each temperature prior to measurement. Tm was defined as the temperature corresponding to the maximum value of the first derivative of fluorescence transition.

CDK12KD/CCNKΔC = molecular target: T2, CDK12KD/CCNKΔC (Homo sapiens, UniProt Q9NYV4); assay: Differential Scanning Fluorimetry (DSF), CDK12KD/CCNKΔC; format: binding; details: 50 µM HQ461, Sypro Orange; read-out: increase in melting temperature (Tm) of CDK12KD/CCNKΔC
T2 construct: Human CDK12KD (residues 715–1052); 6xHis (PreScission site) (N, cleaved yes); made in house; host or cells: Sf9 or High Five, co-infected with yeast CAK1
Experimental: as §1

HCT-116 cells = assay: Cell viability assay, parental HCT-116 and HQ461-resistant HCT-116 clones; format: cell-based, Homo sapiens; details: for CellTiter-Glo (ATP): raw signal, listed as 0461; for IC50: Homo sapiens, HCT-116
Experimental: Seven hundred A549 cells or 1,000 HCT-116 cells in 50 µL of medium were plated per well in 384-well flat clear bottom white polystyrene TC-treated microplates (Corning, Corning, USA). After overnight attachment, cells were dosed with a serial dilution of HQ461 with a D300e digital dispenser (Tecan, Männedorf, Switzerland). Cell survival was measured 72 hr later using CellTiter-Glo luminescent cell viability assay kit (Promega, Madison, USA) following vendor instructions. Luminescence was recorded by EnVison multimode plate reader (PerkinElmer, Waltham, USA). IC50 was determined with GraphPad Prism using baseline correction (by normalizing to DMSO control), the asymmetric (five parameter) equation, and least squares fit.
Parental HCT-116 were plated sparsely on 10 cm plates to allow the isolation of ten individual clones. Each of these ten clones were expanded to one confluent 15 cm plate to establish ten independent cell populations. One million cells from each population were then plated on one 10 cm plate and treated with 20 µM HQ461 continuously for two weeks, with media change every 3 to 4 days. HQ461 resistant clones emerged from 5 out of the 10 populations. These clones were isolated, expanded, and tested for their sensitivity to HQ461 using cell viability assay. Five HQ461-resistant clones selected from independent populations were subjected to genomic DNA isolation as described in the previous session. Their genomic DNAs were then pooled in equal amounts for whole-exome sequencing at 200x average coverage (Novogene, Beijing, China). As a control, genomic DNAs isolated from the corresponding cell populations before HQ461 selection were also pooled for whole-exome sequencing. Raw sequencing data have been deposited to NCBI GEO (GSE153707).

T1 sequence (Q16531 with tags, fused parts or gaps DEL400-704): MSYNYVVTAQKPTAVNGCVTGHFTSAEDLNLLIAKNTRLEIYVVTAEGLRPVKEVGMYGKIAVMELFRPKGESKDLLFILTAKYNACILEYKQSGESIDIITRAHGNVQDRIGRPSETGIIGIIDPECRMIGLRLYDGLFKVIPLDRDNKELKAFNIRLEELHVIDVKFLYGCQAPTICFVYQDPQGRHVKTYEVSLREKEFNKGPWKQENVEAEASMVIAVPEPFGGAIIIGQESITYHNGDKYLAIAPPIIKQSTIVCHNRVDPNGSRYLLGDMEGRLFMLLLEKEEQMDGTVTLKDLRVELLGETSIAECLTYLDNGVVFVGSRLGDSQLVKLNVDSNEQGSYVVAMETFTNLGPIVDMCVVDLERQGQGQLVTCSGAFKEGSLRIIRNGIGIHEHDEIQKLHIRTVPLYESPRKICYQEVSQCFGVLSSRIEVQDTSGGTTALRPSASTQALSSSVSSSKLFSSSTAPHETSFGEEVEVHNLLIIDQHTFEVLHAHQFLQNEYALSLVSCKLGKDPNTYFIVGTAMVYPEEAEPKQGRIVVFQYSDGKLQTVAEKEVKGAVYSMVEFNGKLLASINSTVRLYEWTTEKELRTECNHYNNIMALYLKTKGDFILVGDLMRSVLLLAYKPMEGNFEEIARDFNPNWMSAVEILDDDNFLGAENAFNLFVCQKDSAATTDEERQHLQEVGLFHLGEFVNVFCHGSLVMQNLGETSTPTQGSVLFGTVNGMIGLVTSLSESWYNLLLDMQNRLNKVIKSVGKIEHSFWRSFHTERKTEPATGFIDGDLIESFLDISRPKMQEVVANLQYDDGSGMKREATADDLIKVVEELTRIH
T2 sequence (Q9NYV4 715-1052, stated change not applied): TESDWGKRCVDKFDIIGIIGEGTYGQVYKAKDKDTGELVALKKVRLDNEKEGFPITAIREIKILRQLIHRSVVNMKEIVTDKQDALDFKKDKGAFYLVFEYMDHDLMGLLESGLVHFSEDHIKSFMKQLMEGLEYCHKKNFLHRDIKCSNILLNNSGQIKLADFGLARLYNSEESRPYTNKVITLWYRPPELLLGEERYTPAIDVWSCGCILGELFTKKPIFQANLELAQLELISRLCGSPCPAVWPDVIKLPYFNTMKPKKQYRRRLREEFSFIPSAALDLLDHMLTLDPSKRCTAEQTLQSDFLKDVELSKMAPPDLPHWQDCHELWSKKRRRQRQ
T2 sequence (O75909 11-267 partner limits assumed): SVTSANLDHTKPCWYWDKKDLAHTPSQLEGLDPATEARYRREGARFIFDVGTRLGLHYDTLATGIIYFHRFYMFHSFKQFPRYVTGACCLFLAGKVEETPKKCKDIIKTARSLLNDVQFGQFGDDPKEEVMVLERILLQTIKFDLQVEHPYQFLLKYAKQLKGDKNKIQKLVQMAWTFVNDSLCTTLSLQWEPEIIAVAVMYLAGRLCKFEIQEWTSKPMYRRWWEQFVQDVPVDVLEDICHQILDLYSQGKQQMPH

Q: For `Cc1cccc(Nc2nc(CC(=O)Nc3ncc(C)s3)cs2)n1` [HQ461, 2-(2-((6-methylpyridin-2-yl)amino)thiazol-4-yl)-N-(5-methylthiazol-2-yl)acetamide], which “thermal stability of DDB1ΔBPB” value (DDB1ΔBPB) is on record?
A: did not change the thermal stability

Q: What about the ΔTm at 50 µM (CDK12KD/CCNKΔC) of the same molecule?
A: 1.4 °C

Q: What about the “CellTiter-Glo (ATP)” value (HCT-116 cells; HCT-116 Parental, 1.43856e-6 M) of the same molecule?
A: 1.76E+06 and 1.77E+06 and 2.14E+06 and 2.07E+06

Q: And the “CellTiter-Glo (ATP)” value (HCT-116 cells; HCT-116 Parental, 1.85257e-5 M)?
A: 147560 and 197570

Q: What about the “CellTiter-Glo (ATP)” value (HCT-116 cells; HCT-116 Parental, 1.91632e-5 M) of the same molecule?
A: 303300 and 182560

Q: And the “CellTiter-Glo (ATP)” value (HCT-116 cells; HCT-116 Parental, 3.09439e-5 M)?
A: 96830 and 121990

Q: What about the “CellTiter-Glo (ATP)” value (HCT-116 cells; HCT-116 Parental, 3.21364e-5 M) of the same molecule?
A: 122490 and 116460

Q: What about the “CellTiter-Glo (ATP)” value (HCT-116 cells; HCT-116 Parental, 5.00E-07 M) of the same molecule?
A: 1.93E+06 and 2.16E+06

Q: And the “CellTiter-Glo (ATP)” value (HCT-116 cells; HCT-116 Parental, 5.19E-07 M)?
A: 1.68E+06 and 1.79E+06

Q: And the “CellTiter-Glo (ATP)” value (HCT-116 cells; HCT-116 Parental, 7.99E-07 M)?
A: 2.18E+06 and 1.85E+06

Q: And the “CellTiter-Glo (ATP)” value (HCT-116 cells; HCT-116 Parental, 8.79E-07 M)?
A: 1.85E+06 and 1.84E+06

Q: And the “CellTiter-Glo (ATP)” value (HCT-116 cells; HCT-116 resistant clone 2R, 1.27872e-6 M)?
A: 1.68E+06 and 1.80E+06

Q: What about the “CellTiter-Glo (ATP)” value (HCT-116 cells; HCT-116 resistant clone 2R, 1.35864e-6 M) of the same molecule?
A: 1.87E+06 and 1.72E+06

Q: And the “CellTiter-Glo (ATP)” value (HCT-116 cells; HCT-116 resistant clone 2R, 1.71705e-5 M)?
A: 742920 and 664400

Q: And the “CellTiter-Glo (ATP)” value (HCT-116 cells; HCT-116 resistant clone 2R, 1.78082e-5 M)?
A: 650900 and 675880

Q: And the “CellTiter-Glo (ATP)” value (HCT-116 cells; HCT-116 resistant clone 2R, 2.87969e-5 M)?
A: 418620 and 384180

Q: What about the “CellTiter-Glo (ATP)” value (HCT-116 cells; HCT-116 resistant clone 2R, 2.98307e-5 M) of the same molecule?
A: 380430 and 316510

Q: And the “CellTiter-Glo (ATP)” value (HCT-116 cells; HCT-116 resistant clone 2R, 7.99E-07 M)?
A: 1.71E+06 and 1.76E+06 and 1.66E+06 and 1.65E+06

Q: And the “CellTiter-Glo (ATP)” value (HCT-116 cells; HCT-116 resistant clone 5R, 1.1988e-6 M)?
A: 1.40E+06 and 1.72E+06

Q: What about the “CellTiter-Glo (ATP)” value (HCT-116 cells; HCT-116 resistant clone 5R, 1.27872e-6 M) of the same molecule?
A: 1.47E+06 and 1.50E+06

Q: And the “CellTiter-Glo (ATP)” value (HCT-116 cells; HCT-116 resistant clone 5R, 1.59745e-5 M)?
A: 708690 and 643890

Q: What about the “CellTiter-Glo (ATP)” value (HCT-116 cells; HCT-116 resistant clone 5R, 1.65326e-5 M) of the same molecule?
A: 713930 and 686510

Q: And the “CellTiter-Glo (ATP)” value (HCT-116 cells; HCT-116 resistant clone 5R, 2.67284e-5 M)?
A: 402240 and 357240

Q: And the “CellTiter-Glo (ATP)” value (HCT-116 cells; HCT-116 resistant clone 5R, 2.77628e-5 M)?
A: 421400 and 366190

Q: And the “CellTiter-Glo (ATP)” value (HCT-116 cells; HCT-116 resistant clone 5R, 7.19E-07 M)?
A: 1.56E+06 and 1.54E+06 and 1.42E+06 and 1.57E+06

Q: And the “CellTiter-Glo (ATP)” value (HCT-116 cells; HCT-116 resistant clone 6R, 1.11888e-6 M)?
A: 1.62E+06 and 1.45E+06

Q: And the “CellTiter-Glo (ATP)” value (HCT-116 cells; HCT-116 resistant clone 6R, 1.1988e-6 M)?
A: 1.35E+06 and 1.55E+06

Q: What about the “CellTiter-Glo (ATP)” value (HCT-116 cells; HCT-116 resistant clone 6R, 1.48579e-5 M) of the same molecule?
A: 838610 and 815000

Q: And the “CellTiter-Glo (ATP)” value (HCT-116 cells; HCT-116 resistant clone 6R, 1.54163e-5 M)?
A: 808740 and 730030

Q: What about the “CellTiter-Glo (ATP)” value (HCT-116 cells; HCT-116 resistant clone 6R, 2.48182e-5 M) of the same molecule?
A: 327830 and 270480

Q: What about the “CellTiter-Glo (ATP)” value (HCT-116 cells; HCT-116 resistant clone 6R, 2.57734e-5 M) of the same molecule?
A: 314810 and 296570

Q: And the “CellTiter-Glo (ATP)” value (HCT-116 cells; HCT-116 resistant clone 6R, 6.71E-07 M)?
A: 1.36E+06 and 1.56E+06

Q: What about the “CellTiter-Glo (ATP)” value (HCT-116 cells; HCT-116 resistant clone 6R, 6.95E-07 M) of the same molecule?
A: 1.61E+06 and 1.53E+06

Q: And the “CellTiter-Glo (ATP)” value (HCT-116 cells; HCT-116 resistant clone 8R, 1.03896e-6 M)?
A: 1.50E+06 and 1.58E+06

Q: What about the “CellTiter-Glo (ATP)” value (HCT-116 cells; HCT-116 resistant clone 8R, 1.11888e-6 M) of the same molecule?
A: 1.51E+06 and 1.63E+06

Q: What about the “CellTiter-Glo (ATP)” value (HCT-116 cells; HCT-116 resistant clone 8R, 1.42995e-5 M) of the same molecule?
A: 543300 and 1.00E+06

Q: What about the “CellTiter-Glo (ATP)” value (HCT-116 cells; HCT-116 resistant clone 8R, 2.30667e-5 M) of the same molecule?
A: 427880 and 390970

Q: And the “CellTiter-Glo (ATP)” value (HCT-116 cells; HCT-116 resistant clone 8R, 2.39426e-5 M)?
A: 409850 and 403510

Q: And the “CellTiter-Glo (ATP)” value (HCT-116 cells; HCT-116 resistant clone 8R, 4.00787e-5 M)?
A: 298050 and 276140

Q: And the “CellTiter-Glo (ATP)” value (HCT-116 cells; HCT-116 resistant clone 8R, 6.23E-07 M)?
A: 1.45E+06 and 1.63E+06

Q: And the “CellTiter-Glo (ATP)” value (HCT-116 cells; HCT-116 resistant clone 8R, 6.47E-07 M)?
A: 1.55E+06 and 1.60E+06

Q: What about the “CellTiter-Glo (ATP)” value (HCT-116 cells; HCT-116 resistant clone 9R, 1.03896e-6 M) of the same molecule?
A: 288440 and 333120

Q: What about the “CellTiter-Glo (ATP)” value (HCT-116 cells; HCT-116 resistant clone 9R, 2.13941e-5 M) of the same molecule?
A: 65580 and 36800

Q: What about the “CellTiter-Glo (ATP)” value (HCT-116 cells; HCT-116 resistant clone 9R, 2.22704e-5 M) of the same molecule?
A: 50040 and 30190

Q: What about the “CellTiter-Glo (ATP)” value (HCT-116 cells; HCT-116 resistant clone 9R, 3.58708e-5 M) of the same molecule?
A: 46680 and 23830

Q: And the “CellTiter-Glo (ATP)” value (HCT-116 cells; HCT-116 resistant clone 9R, 3.72209e-5 M)?
A: 43970 and 22740

Q: What about the “CellTiter-Glo (ATP)” value (HCT-116 cells; HCT-116 resistant clone 9R, 5.79E-07 M) of the same molecule?
A: 315200 and 382800

Q: What about the “CellTiter-Glo (ATP)” value (HCT-116 cells; HCT-116 resistant clone 9R, 5.99E-07 M) of the same molecule?
A: 335950 and 324000

Q: And the “CellTiter-Glo (ATP)” value (HCT-116 cells; HCT-116 resistant clone 9R, 9.59E-07 M)?
A: 277130 and 355980

Q: And the “increase of IC50 relative to parental HCT-116 cells” value (HCT-116 cells; HQ461-resistant HCT-116 clones)?
A: three-fold

Q: What about the IC50 (HCT-116 cells; five HQ461-resistant clones, read-out: IC50 on the viability of five HQ461-resistant HCT-116 clones) of the same molecule?
A: 13 to 14.3 µM

Q: And the IC50 (HCT-116 cells; read-out: IC50 on the viability of parental HCT-116)?
A: 4.6 µM
